Assay results from ChEMBL document CHEMBL1124314, “Development of phosphonate derivatives of gadolinium chelates for NMR imaging of calcified soft tissues” (J Med Chem, 1989).

How the values were obtained:
Rattus norvegicus [1] = organism: Rattus norvegicus; test: Biodistribution in rat kidney in the presence of 0.01 M GdDTPA-BDP; format: ADME, organism-based; conditions: in vivo
Rattus norvegicus [2] = organism: Rattus norvegicus; test: Biodistribution in rat heart in the presence of 0.10 M/0.11 M GdDTPA-HPDP; conditions: in vivo
Rattus norvegicus [3] = organism: Rattus norvegicus; test: Biodistribution in rat bone in the presence of GdDTPA-HPDP at 1 hr; format: ADME, organism-based, Bone element; conditions: in vivo
Rattus norvegicus [4] = organism: Rattus norvegicus; test: Biodistribution in rat blood in the presence of GdDTPA at 4 hr; format: ADME, organism-based; conditions: in vivo
Rattus norvegicus [5] = organism: Rattus norvegicus; test: Biodistribution in rat bone in the presence of GdDTPA at 4 hr; format: ADME, organism-based, Bone element; conditions: in vivo
Rattus norvegicus [6] = organism: Rattus norvegicus; test: Biodistribution in rat heart in the presence of GdDTPA at 4 hr; format: ADME, organism-based; conditions: in vivo
Rattus norvegicus [7] = organism: Rattus norvegicus; test: Biodistribution in rat blood in the presence of GdDTPA-BDPat 1 hr; format: ADME, organism-based; conditions: in vivo
Rattus norvegicus [8] = organism: Rattus norvegicus; test: Biodistribution in rat bone in the presence of 0.10 M/0.11 M GdDTPA-AEP; format: ADME, organism-based, Bone element; conditions: in vivo
Rattus norvegicus [9] = organism: Rattus norvegicus; test: Biodistribution in rat muscle in the presence of GdDTPA-BDP at 4 hr; format: ADME, organism-based, Muscle tissue; conditions: in vivo
Rattus norvegicus [10] = organism: Rattus norvegicus; test: Biodistribution in rat blood in the presence of 0.01 M GdDTPA-BDP; format: ADME, organism-based; conditions: in vivo
Rattus norvegicus [11] = organism: Rattus norvegicus; test: Biodistribution in rat heart in the presence of GdDTPA-BDP at 4 hr; conditions: in vivo
Rattus norvegicus [12] = organism: Rattus norvegicus; test: Biodistribution in rat bone in the presence of GdDTPA-BDP at 1 hr; format: ADME, organism-based, Bone element; conditions: in vivo
Rattus norvegicus [13] = organism: Rattus norvegicus; test: Biodistribution in rat bone in the presence of 0.10 M GdDTPA-BDP; format: ADME, organism-based, Bone element; conditions: in vivo
Rattus norvegicus [14] = organism: Rattus norvegicus; test: Biodistribution in rat kidney in the presence of 0.10 M GdDTPA-BDP; format: ADME, organism-based; conditions: in vivo
Rattus norvegicus [15] = organism: Rattus norvegicus; test: Biodistribution in rat heart in the presence of 0.05 M /0.05 M GdDTPA-AEP; format: ADME, organism-based; conditions: in vivo
Rattus norvegicus [16] = organism: Rattus norvegicus; test: Biodistribution in rat liver in the presence of 0.001 M/0.008 M GdDTPA-AEP; format: ADME, organism-based; conditions: in vivo
Rattus norvegicus [17] = organism: Rattus norvegicus; test: Biodistribution in rat blood in the presence of 0.05 M/0.08 M GdDTPA-HPDP; format: ADME, organism-based; conditions: in vivo
Rattus norvegicus [18] = organism: Rattus norvegicus; test: Biodistribution in rat bone in the presence of GdDTPA-HPDP at 30 min; format: ADME, organism-based, Bone element; conditions: in vivo, 0.5 h
Rattus norvegicus [19] = organism: Rattus norvegicus; test: Biodistribution in rat heart in the presence of GdDTPA-HPDP at 30 min; format: ADME, organism-based; conditions: in vivo, 0.5 h
Rattus norvegicus [20] = organism: Rattus norvegicus; test: Biodistribution in rat heart in the presence of GdDTPA-HPDPat 15 min; format: ADME, organism-based; conditions: in vivo, 0.25 h
Rattus norvegicus [21] = organism: Rattus norvegicus; test: Biodistribution in rat blood in the presence of GdDTPA-HPDPat 1 hr; format: ADME, organism-based; conditions: in vivo
Rattus norvegicus [22] = organism: Rattus norvegicus; test: Biodistribution in rat liver in the presence of 0.05 M/0.05 M GdDTPA-AEP; format: ADME, organism-based; conditions: in vivo
Rattus norvegicus [23] = organism: Rattus norvegicus; test: Biodistribution in rat blood in the presence of GdDTPA at 1 hr; format: ADME, organism-based; conditions: in vivo
Rattus norvegicus [24] = organism: Rattus norvegicus; test: Biodistribution in rat muscle in the presence of 0.05 M GdDTPA-BDP; format: ADME, organism-based, Muscle tissue; conditions: in vivo
Rattus norvegicus [25] = organism: Rattus norvegicus; test: Biodistribution in rat heart in the presence of NAC Gd/0.01 M GdDTPA-HPDP; format: ADME, organism-based; conditions: in vivo
Rattus norvegicus [26] = organism: Rattus norvegicus; test: Biodistribution in rat heart in the presence of GdDTPA-HPDP at 1 hr; format: ADME, organism-based; conditions: in vivo
Rattus norvegicus [27] = organism: Rattus norvegicus; test: Biodistribution in rat kidney in the presence of NAC Gd/0.01 M GdDTPA-HPDP; format: ADME, organism-based; conditions: in vivo
Rattus norvegicus [28] = organism: Rattus norvegicus; test: Biodistribution in rat bone in the presence of GdDTPA at 1 hr; format: ADME, organism-based, Bone element; conditions: in vivo
Rattus norvegicus [29] = organism: Rattus norvegicus; test: Biodistribution in rat liver in the presence of GdDTPA-HPDP at 15 min; format: ADME, organism-based; conditions: in vivo, 0.25 h
Rattus norvegicus [30] = organism: Rattus norvegicus; test: Biodistribution in rat heart in the presence of 0.05 M GdDTPA-BDP; format: ADME, organism-based; conditions: in vivo
Rattus norvegicus [31] = organism: Rattus norvegicus; test: Biodistribution in rat liver in the presence of 0.01 M GdDTPA-BDP; format: ADME, organism-based; conditions: in vivo
Rattus norvegicus [32] = organism: Rattus norvegicus; test: Biodistribution in rat blood in the presence of GdDTPA-HPDP at 15 min; format: ADME, organism-based; conditions: in vivo, 0.25 h
Rattus norvegicus [33] = organism: Rattus norvegicus; test: Biodistribution in rat blood in the presence of 0.10 M/0.11 M GdDTPA-HPDP; conditions: in vivo
Rattus norvegicus [34] = organism: Rattus norvegicus; test: Biodistribution in rat bone in the presence of GdDTPA at 30 min; format: ADME, organism-based, Bone element; conditions: in vivo, 0.5 h
Rattus norvegicus [35] = organism: Rattus norvegicus; test: Biodistribution in rat kidney in the presence of 0.01 M/0.01 M GdDTPA-AEP; format: ADME, organism-based; conditions: in vivo
Rattus norvegicus [36] = organism: Rattus norvegicus; test: Biodistribution in rat blood in the presence of GdDTPA-BDP at 20 min; conditions: in vivo, 0.33 h
Rattus norvegicus [37] = organism: Rattus norvegicus; test: Biodistribution in rat liver in the presence of GdDTPA-HPDP at 1 hr; format: ADME, organism-based; conditions: in vivo
Rattus norvegicus [38] = organism: Rattus norvegicus; test: Biodistribution in rat muscle in the presence of GdDTPA-BDPat 30 min; format: ADME, organism-based, Muscle tissue; conditions: in vivo, 0.5 h
Rattus norvegicus [39] = organism: Rattus norvegicus; test: Biodistribution in rat liver in the presence of GdDTPA-HPDP at 4 hr; format: ADME, organism-based; conditions: in vivo
Rattus norvegicus [40] = organism: Rattus norvegicus; test: Biodistribution in rat blood in the presence of 0.001 M/0.008 M GdDTPA-AEP; format: ADME, organism-based; conditions: in vivo
Rattus norvegicus [41] = organism: Rattus norvegicus; test: Biodistribution in rat muscle in the presence of GdDTPA-HPDPat 30 min; format: ADME, organism-based, Muscle tissue; conditions: in vivo, 0.5 h
Rattus norvegicus [42] = organism: Rattus norvegicus; test: Biodistribution in rat blood in the presence of GdDTPA-BDP at 4 hr; format: ADME, organism-based; conditions: in vivo
Rattus norvegicus [43] = organism: Rattus norvegicus; test: Biodistribution in rat blood in the presence of 0.01 M/0.01 M GdDTPA-AEP; format: ADME, organism-based; conditions: in vivo
Rattus norvegicus [44] = organism: Rattus norvegicus; test: Biodistribution in rat bone in the presence of NAC Gd/0.01 M GdDTPA-HPDP; format: ADME, organism-based, Bone element; conditions: in vivo
Rattus norvegicus [45] = organism: Rattus norvegicus; test: Biodistribution in rat blood in the presence of GdDTPA-HPDP at 4 hr; format: ADME, organism-based; conditions: in vivo
Rattus norvegicus [46] = organism: Rattus norvegicus; test: Biodistribution in rat heart in the presence of GdDTPA-BDP at 30 min; format: ADME, organism-based; conditions: in vivo, 0.5 h

## O=C(O)CN(CCN(CC(=O)O)CC(=O)O)CCN(CC(=O)O)CC(=O)O [PENTETIC ACID]
Rattus norvegicus [1]
  ID/organ: 0.476%
Rattus norvegicus [2]
  ID/organ: 0.006%
Rattus norvegicus [3]
  ID/organ: 20%
Rattus norvegicus [4]
  ID/organ: 0.005%
Rattus norvegicus [5]
  ID/organ: 0.287%
Rattus norvegicus [6]
  ID/organ: 0.002%
Rattus norvegicus [7]
  ID/organ: 2.53%
Rattus norvegicus [8]
  ID/organ: 16.4%
Rattus norvegicus [9]
  ID/organ: 4.5%
Rattus norvegicus [10]
  ID/organ: 9.49%
Rattus norvegicus [11]
  ID/organ: 0.037%
Rattus norvegicus [12]
  ID/organ: 17.6%
Rattus norvegicus [13]
  ID/organ: 13.3%
Rattus norvegicus [14]
  ID/organ: 0.29%
Rattus norvegicus [15]
  ID/organ: 0.016%
Rattus norvegicus [16]
  ID/organ: 0.239%
Rattus norvegicus [17]
  ID/organ: 0.27%
Rattus norvegicus [18]
  ID/organ: 16.8%
Rattus norvegicus [19]
  ID/organ: 0.04%
Rattus norvegicus [20]
  ID/organ: 0.081%
Rattus norvegicus [21]
  ID/organ: 0.543%
Rattus norvegicus [22]
  ID/organ: 14.8%
Rattus norvegicus [23]
  ID/organ: 0.094%
Rattus norvegicus [24]
  ID/organ: 4.47%
Rattus norvegicus [25]
  ID/organ: 0.032%
Rattus norvegicus [26]
  ID/organ: 0.011%
Rattus norvegicus [27]
  ID/organ: 0.273%
Rattus norvegicus [28]
  ID/organ: 0.779%
Rattus norvegicus [29]
  ID/organ: 0.745%
Rattus norvegicus [30]
  ID/organ: 0.048%
Rattus norvegicus [31]
  ID/organ: 5.21%
Rattus norvegicus [32]
  ID/organ: 4.07%
Rattus norvegicus [33]
  ID/organ: 0.19%
Rattus norvegicus [34]
  ID/organ: 0.779%
Rattus norvegicus [35]
  ID/organ: 0.222%
Rattus norvegicus [36]
  ID/organ: 4.43%
Rattus norvegicus [37]
  ID/organ: 0.201%
Rattus norvegicus [38]
  ID/organ: 5.17%
Rattus norvegicus [39]
  ID/organ: 0.202%
Rattus norvegicus [40]
  ID/organ: 0.143%
Rattus norvegicus [41]
  ID/organ: 4.09%
Rattus norvegicus [42]
  ID/organ: 2.26%
Rattus norvegicus [43]
  ID/organ: 0.503%
Rattus norvegicus [44]
  ID/organ: 65.7%
Rattus norvegicus [45]
  ID/organ: 0.068%
Rattus norvegicus [46]
  ID/organ: 17.6%
